Measurements from the NIST ThermoML archive (doi:10.1016/j.jct.2012.05.020).
Numbers after ± are expanded uncertainties.

Settings: 101.33 kPa, Liquid, Vibrating tube method

SMILES	mass density (293.16 K)	mass density (298.15 K)	mass density (303.15 K)	mass density (308.15 K)	mass density (313.15 K)	mass density (318.15 K)	mass density (323.18 K)	mass density (298.14 K)	mass density (303.14 K)	mass density (308.14 K)	mass density (313.14 K)	mass density (318.14 K)	mass density (323.14 K)	mass density (328.14 K)	mass density (333.14 K)	mass density (338.14 K)	mass density (343.14 K)	mass density (293.15 K)
CCOS(=O)(=O)[O-].CCn1cc[n+](C)c1 [1-ethyl-3-methylimidazolium ethyl sulfate]	1240.25 ± 0.16 kg/m3	1236.81 ± 0.16 kg/m3	1233.39 ± 0.16 kg/m3	1229.98 ± 0.15 kg/m3	1226.59 ± 0.15 kg/m3	1223.22 ± 0.15 kg/m3	1219.84 ± 0.15 kg/m3	–	–	–	–	–	–	–	–	–	–	–
CCCCCCCC[N+](C)(CCCCCCCC)CCCCCCCC.O=[N+]([O-])[O-] [N-methyl-N,N,N-trioctylammonium nitrate]	915.29 ± 2.9 kg/m3	–	–	–	–	–	–	912.33 ± 2.9 kg/m3	909.37 ± 2.9 kg/m3	906.41 ± 2.8 kg/m3	903.43 ± 2.8 kg/m3	900.5 ± 2.8 kg/m3	897.58 ± 2.8 kg/m3	894.67 ± 2.8 kg/m3	891.76 ± 2.8 kg/m3	888.84 ± 2.7 kg/m3	885.93 ± 2.7 kg/m3	–
CCCCCCCC[N+](C)(CCCCCCCC)CCCCCCCC.[Cl-] [N-methyl-N,N-dioctyl-1-octanaminium chloride]	–	–	–	–	–	–	–	886.45 ± 2.7 kg/m3	883.43 ± 2.7 kg/m3	880.41 ± 2.7 kg/m3	877.37 ± 2.7 kg/m3	874.35 ± 2.6 kg/m3	871.36 ± 2.6 kg/m3	868.37 ± 2.6 kg/m3	865.37 ± 2.6 kg/m3	862.37 ± 2.6 kg/m3	859.36 ± 2.6 kg/m3	889.47 ± 2.7 kg/m3
